Consider 2 compounds from patent US11180484B2, “Pyrazole derivatives as plasma kallikrein inhibitors” (KALVISTA PHARMACEUTICALS LIMITED, priority 2016, dated 2021).

Broadly, the IC50 is the concentration needed to halve the response being measured. Broadly, the Cmax is the peak of the concentration-time curve. The Tmax is the time from dosing to the highest level. Usually fraction unbound stands for the share of the substance not bound to proteins or other matrix. Higher therefore signals weak binding. As usually defined, the Papp is a coefficient for how fast a substance crosses the barrier. A higher Papp goes with fast passage. For orientation: inhibition means how much of the control response was suppressed. What is called solubility is how much of the substance goes into solution per volume.

Converted amounts (≈) assume the structure as drawn. Like-named read-outs stand apart in the source and are kept apart here.

In one data set the target is Human Factor XIIa (Homo sapiens (Human), UniProt P00748). Description: Factor XIIa inhibitory activity in vitro. It counts as biochemical. Particulars: 25° C., substrate H-DPro-Phe-Arg-AFC; read-out: IC50 (human FXIIa). The method, then: Human Factor XIIa (Enzyme Research Laboratories) was incubated at 25° C. with the fluorogenic substrate H-DPro-Phe-Arg-AFC and various concentrations of the test compound. Residual enzyme activity (initial rate of reaction) was determined by measuring the change in […] at 410 nm and the IC50 value for the test compound was determined.

For another data set, the target named is plasmin (Homo sapiens (Human), UniProt P00747). Description: Determination of enzyme selectivity: plasmin. It counts as biochemical. The following applies: substrate at Km concentration.
The next data set deals with Human plasma kallikrein (Homo sapiens (Human), UniProt P03952). The data set is described as follows: Determination of the IC50 for plasma kallikrein. It counts as biochemical. The following applies: 25° C., substrate H-DPro-Phe-Arg-AFC; read-out: IC50 (human PKal). The method, then: Human plasma kallikrein (Protogen) was incubated at 25° C. with the fluorogenic substrate H-DPro-Phe-Arg-AFC and various concentrations of the test compound. Residual enzyme activity (initial rate of reaction) was determined by measuring the change in […] at 410 nm and the IC50 value for the test compound was determined.

The nature of data set [1]: Pharmacokinetics following a single oral dose in male Sprague-Dawley rats. It counts as in vivo. Particulars: rat, single po dose (nominal 10 mg/kg; actual dose per row in column Dose po), 10% DMSO/10% cremophor/80% SWFI, plasma. Here is the method:
Pharmacokinetic studies of the compounds in Table 13 were performed to assess the pharmacokinetics following a single oral dose in male Sprague-Dawley rats. Two rats were given a single po dose of 5 mL/kg of a nominal 2 mg/mL (10 mg/kg) composition of test compound in vehicle. Following dosing, blood samples were collected over a period of 24 hours. Sample times were 5, 15 and 30 minutes then 1, 2, 4, 6, 8 and 12 hours. Following collection, blood samples were centrifuged and the plasma fraction analysed for concentration of test compound by LCMS.

Data set [2] in a line: Plasma protein binding (PPB), rapid equilibrium dialysis, human plasma. It counts as in vitro ADME. The following applies: 5 μM test compound, dialysis 5 hrs at 37° C.
The nature of data set [3]: Intrinsic clearance in rat liver microsomes. It counts as in vitro ADME. Particulars: rat liver microsomes 0.5 mg/mL, 5 μM test compound, 37° C.; read-out: rat liver microsome (Clint μL/min/mg protein). The method, then: (§1) Rat or human liver microsomes (0.5 mg/mL; Corning) were incubated with 5 μM test compound at 37° C. on a shaking platform (150 rpm). Samples were taken at 0, 6, 12, 18, 24 and 60 min and test compound concentrations were determined by LCMS against a calibration curve.

Another data set deals with trypsin. The data set is described as follows: Determination of enzyme selectivity: trypsin. Particulars: substrate at Km concentration. It counts as biochemical, human.
The nature of data set [4]: Plasma protein binding (PPB), rapid equilibrium dialysis, rat plasma. It counts as in vitro ADME. Particulars: 5 μM test compound, dialysis 5 hrs at 37° C. Background: Equilibrium dialysis compares concentrations on both sides of a semipermeable membrane.
Data set [5] can be described thus: Predicted plasma clearance (Clp), well-stirred model, human. It counts as in vitro ADME. Particulars: percentage of hepatic blood flow.
The nature of data set [6]: In vitro permeability, Caco-2 model for oral absorption. It counts as in vitro ADME. Particulars: human, apical to basolateral, 50 μM test compound, 37° C. An outline of the steps: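 Caco-2 monolayers grown on collagen inserts for 3 days, with 50 μM compound added apically and incubated 1 hour at 37° C with shaking. Apical-to-basolateral transport measured by LCMS in both compartments. Monolayer integrity checked by TEER before and after, and by Lucifer Yellow flux.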

A further data set deals with Human KLK1 (Homo sapiens (Human), UniProt P06870). Description: Determination of the IC50 for KLK1. It counts as biochemical. The following applies: 25° C., substrate H-DVal-Leu-Arg-AFC. The method, then:
Human KLK1 (Callbiochem) was incubated at 25° C. with the fluorogenic substrate H-DVal-Leu-Arg-AFC and various concentrations of the test compound. Residual enzyme activity (initial rate of reaction) was determined by measuring the change in […] at 410 nm and the IC50 value for the test compound was determined.

The nature of data set [7]: Predicted plasma clearance (Clp), well-stirred model, rat. The following applies: percentage of hepatic blood flow. It counts as in vitro ADME.
The target of the next data set is Human FXIa (Homo sapiens (Human), UniProt P03951). Description: Determination of the % inhibition / IC50 for FXIa. The following applies: for inhibition at 40 µM: 40 μM test compound, read-out: % Inhibition @ 40 μM (human FXIa); for IC50: 25° C., substrate Z-Gly-Pro-Arg-AFC. It counts as biochemical. The method, then: FXIa inhibitory activity in vitro was determined using standard published methods (see e.g. Johansen et al., Int. J. Tiss. Reac. 1986, 8, 185; Shori et al., Biochem. Pharmacol., 1992, 43, 1209; Sturzebecher et al., Biol. Chem. Hoppe-Seyler, 1992, 373, 1025). […]

Another data set has as its target thrombin (Homo sapiens (Human), UniProt P00734). Description: Determination of enzyme selectivity: thrombin. It counts as biochemical. The following applies: substrate at Km concentration.
Data set [8] is described as follows: Intrinsic clearance in human liver microsomes. It counts as in vitro ADME. Particulars: human liver microsomes 0.5 mg/mL, 5 μM test compound, 37° C.; read-out: Human liver microsome (Clint μL/min/mg protein). Here is the method: as §1
(Liver microsomes are vesicles of endoplasmic reticulum, rich in cytochrome P450 enzymes.)

A short description of data set [9]: Solubility in water and 0.1N HCl (aq). It counts as physicochemical. The following applies: thermodynamic from solid, incubated at 1 mg/mL, 37° C. The method, then: Solubility was determined in water and 0.1N HCl (aq). Test compounds were incubated at 1 mg/mL for 24 hrs at 37° C. on a shaking platform (500 rpm). Samples were taken at 1, 4 and 24 hrs and centrifuged at 15,000 g for 10 min. Test compound concentration in the supernatant was determined by LCMS against a standard curve.

Chain of Human FXIa (P03951 388-625): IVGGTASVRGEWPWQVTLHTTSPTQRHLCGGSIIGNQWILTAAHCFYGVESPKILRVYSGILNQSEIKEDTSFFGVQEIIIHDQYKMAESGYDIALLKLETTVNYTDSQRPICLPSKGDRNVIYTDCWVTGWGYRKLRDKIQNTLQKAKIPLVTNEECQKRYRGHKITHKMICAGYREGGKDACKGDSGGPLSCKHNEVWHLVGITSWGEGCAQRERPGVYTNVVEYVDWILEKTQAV
Chain of Human FXIa (P03951 19-387): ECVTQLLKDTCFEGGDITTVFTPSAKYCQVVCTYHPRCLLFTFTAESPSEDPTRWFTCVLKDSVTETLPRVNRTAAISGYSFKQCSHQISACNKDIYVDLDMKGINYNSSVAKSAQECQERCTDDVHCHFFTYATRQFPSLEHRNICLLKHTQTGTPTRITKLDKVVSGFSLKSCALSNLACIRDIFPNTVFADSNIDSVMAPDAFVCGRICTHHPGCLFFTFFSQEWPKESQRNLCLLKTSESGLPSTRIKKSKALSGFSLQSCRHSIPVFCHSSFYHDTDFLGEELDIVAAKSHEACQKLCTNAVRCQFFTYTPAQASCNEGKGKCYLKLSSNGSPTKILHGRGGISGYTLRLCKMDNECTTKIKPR
Chain of Human KLK1 (P06870 25-262): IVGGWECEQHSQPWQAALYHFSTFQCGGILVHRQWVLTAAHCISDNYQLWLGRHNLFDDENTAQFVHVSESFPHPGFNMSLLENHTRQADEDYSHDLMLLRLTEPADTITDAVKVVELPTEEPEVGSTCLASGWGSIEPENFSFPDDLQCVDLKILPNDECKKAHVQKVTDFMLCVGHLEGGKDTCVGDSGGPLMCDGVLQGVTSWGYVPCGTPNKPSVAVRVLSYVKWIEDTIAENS
Chain of Human Factor XIIa (P00748 373-615): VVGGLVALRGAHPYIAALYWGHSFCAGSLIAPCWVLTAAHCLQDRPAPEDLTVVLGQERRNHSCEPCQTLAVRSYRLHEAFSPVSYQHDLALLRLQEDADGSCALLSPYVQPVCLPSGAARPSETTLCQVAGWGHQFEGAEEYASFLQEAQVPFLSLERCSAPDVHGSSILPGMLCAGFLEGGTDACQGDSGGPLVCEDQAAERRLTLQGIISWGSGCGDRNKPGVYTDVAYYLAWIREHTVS
Chain of Human plasma kallikrein (P03952 391-638): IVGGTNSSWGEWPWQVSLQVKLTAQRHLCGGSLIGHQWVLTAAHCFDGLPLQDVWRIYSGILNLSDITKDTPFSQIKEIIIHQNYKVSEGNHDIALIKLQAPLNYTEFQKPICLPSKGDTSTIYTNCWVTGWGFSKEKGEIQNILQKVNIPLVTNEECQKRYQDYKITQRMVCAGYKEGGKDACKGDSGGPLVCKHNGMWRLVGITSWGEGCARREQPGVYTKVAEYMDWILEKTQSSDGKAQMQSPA
Chain of Human plasma kallikrein (P03952 20-390): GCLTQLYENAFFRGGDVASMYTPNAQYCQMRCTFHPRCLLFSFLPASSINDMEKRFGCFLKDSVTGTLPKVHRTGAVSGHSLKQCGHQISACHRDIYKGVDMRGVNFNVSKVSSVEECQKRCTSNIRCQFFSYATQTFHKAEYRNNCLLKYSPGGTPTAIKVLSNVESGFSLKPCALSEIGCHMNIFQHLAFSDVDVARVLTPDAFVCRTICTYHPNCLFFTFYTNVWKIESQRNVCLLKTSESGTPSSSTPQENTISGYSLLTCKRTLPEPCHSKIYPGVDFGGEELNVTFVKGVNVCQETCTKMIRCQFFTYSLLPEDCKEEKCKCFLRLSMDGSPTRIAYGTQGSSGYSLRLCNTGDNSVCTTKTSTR
Chain of plasmin (P00747 581-810): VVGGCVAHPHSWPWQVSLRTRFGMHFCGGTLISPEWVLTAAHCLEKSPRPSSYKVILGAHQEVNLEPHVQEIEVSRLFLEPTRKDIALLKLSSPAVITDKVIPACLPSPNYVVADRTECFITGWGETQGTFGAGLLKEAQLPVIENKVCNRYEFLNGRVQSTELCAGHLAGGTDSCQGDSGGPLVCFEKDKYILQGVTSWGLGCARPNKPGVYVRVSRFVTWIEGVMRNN
Chain of plasmin (P00747 97-580): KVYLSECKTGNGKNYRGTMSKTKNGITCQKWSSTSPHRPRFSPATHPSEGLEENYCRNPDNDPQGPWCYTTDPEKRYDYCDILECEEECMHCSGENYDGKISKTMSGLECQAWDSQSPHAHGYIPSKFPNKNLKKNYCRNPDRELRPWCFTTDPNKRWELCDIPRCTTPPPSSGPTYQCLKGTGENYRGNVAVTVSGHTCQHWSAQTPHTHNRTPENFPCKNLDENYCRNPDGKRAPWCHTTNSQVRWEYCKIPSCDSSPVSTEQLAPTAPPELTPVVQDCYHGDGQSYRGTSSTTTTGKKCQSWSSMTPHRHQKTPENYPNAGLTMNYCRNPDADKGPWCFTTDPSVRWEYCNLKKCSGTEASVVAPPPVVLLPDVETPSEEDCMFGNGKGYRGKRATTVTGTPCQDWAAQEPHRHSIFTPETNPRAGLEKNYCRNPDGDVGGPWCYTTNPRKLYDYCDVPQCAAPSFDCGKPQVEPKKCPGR

As to `COc1ccnc(CNC(=O)c2cn(Cc3ccc(Cn4ccccc4=O)cc3)nc2C(F)(F)F)c1F` [Example 6, N-[(3-fluoro-4-methoxypyridin-2-yl)methyl]-1-({4-[(2-oxopyridin-1-yl)methyl]phenyl}methyl)-3-(trifluoromethyl)pyrazole-4-carboxamide], the IC50 is more than 4 µM on Human Factor XIIa; more than 40 µM at plasmin; 0.0032 µM at Human plasma kallikrein; more than 40 µM at trypsin; more than 4 µM at Human KLK1; more than 40 µM against Human FXIa. This compound also showed an IC50 on thrombin of more than 40 µM. In [1], this compound gave a Cmax of 1800 ng/mL. For the same compound, the Tmax in data set [1] was 30 min. For the same compound, the fraction unbound at 5 h, 5 μM in data set [2] is 0.13; in data set [4], 0.05. For the same compound, the microsomal CLint at 5 μM in [3] turned out to be 30 µL/min/mg; in data set [8] it was 42 µL/min/mg. Besides, in [5], the “Predicted in vivo human Clp (% LBF)” value is recorded as 24 % LBF. In data set [6], this compound registered a Papp at 1 h, 50 μM of 17 ×10⁻⁶ cm/s. For the same compound, in [7], the “Predicted in vivo rat Clp (% LBF)” value was 6 % LBF. For the same compound, the inhibition at 40 µM on Human FXIa amounted to 2%.

Consider `COCc1nn(Cc2ccc(Cn3cc(F)ccc3=O)cc2)cc1C(=O)NCc1nccc(OC)c1F` [Example 30, 1-({4-[(5-fluoro-2-oxopyridin-1-yl)methyl]phenyl}methyl)-N-[(3-fluoro-4-methoxypyridin-2-yl)methyl]-3-(methoxymethyl)pyrazole-4-carboxamide], for which the IC50 was more than 40 µM on Human Factor XIIa; more than 40 µM on plasmin; 0.0067 µM at Human plasma kallikrein; more than 40 µM on trypsin; more than 40 µM against Human KLK1; more than 40 µM against Human FXIa. This compound also came in with an IC50 on thrombin of more than 40 µM. The peak level in [1] (Cmax) was 756 ng/mL. The Tmax in [1] is 38 min. The values for the fraction unbound at 5 h, 5 μM in [2] and in data set [4] were 0.18 and 0.03, respectively. In addition, the microsomal CLint at 5 μM in [3] came out at 22 µL/min/mg; in data set [8] it was 20 µL/min/mg. The “Predicted in vivo human Clp (% LBF)” value in data set [5] was 12 % LBF. Besides, in data set [6], the Papp at 1 h, 50 μM was 24 ×10⁻⁶ cm/s. For the same compound, in data set [7], the “Predicted in vivo rat Clp (% LBF)” value is reported as 1 % LBF. For the same compound, the solubility in data set [9] (simulated gastric fluid, 0.1N HCl (aq), read-out: Solubility 0.1N HCl (aq)) was 940 µg/mL (≈ 1840 µM); in [9] (water, read-out: Solubility Water), 290 µg/mL (≈ 569 µM). Also, the inhibition at 40 µM on Human FXIa was determined as 7%.
